# Measured values: ChEMBL document CHEMBL5352433, “Design, synthesis, and biological evaluation of low-toxic lappaconitine derivatives as potential analgesics” (Eur J Med Chem, 2022)
# Test system: Mus musculus
# Assay: Analgesic activity against acetic acid-induced Kunming writhing mouse model assessed as inhibition of writhing at 10 mg/kg, sc pretreated with compound for 15 mins followed by acetic acid addition and measured after 15 mins relative to control
# Type: functional
# Settings: 0.5 h, time 30 min
row,SMILES,inhibition in vivo at 10 mg/kg
1,CCN1C[C@]2(OC(=O)c3ccccc3NC(=O)c3cccc(C#N)c3)CC[C@H](OC)[C@]34C1[C@H](C[C@H]23)[C@@]1(O)C[C@H](OC)[C@H]2C[C@@H]4[C@]1(O)[C@H]2OC,10.7%
2,CCN1C[C@]2(OC(=O)c3ccccc3NC(=O)c3cccc(OC)c3)CC[C@H](OC)[C@]34C1[C@H](C[C@H]23)[C@@]1(O)C[C@H](OC)[C@H]2C[C@@H]4[C@]1(O)[C@H]2OC,0%
3,CCN1C[C@]2(OC(=O)c3ccccc3NC(=O)c3ccccc3F)CC[C@H](OC)[C@]34C1[C@H](C[C@H]23)[C@@]1(O)C[C@H](OC)[C@H]2C[C@@H]4[C@]1(O)[C@H]2OC,17.7%
4,CCN1C[C@]2(OC(=O)c3ccccc3NC(=O)c3ccccc3Br)CC[C@H](OC)[C@]34C1[C@H](C[C@H]23)[C@@]1(O)C[C@H](OC)[C@H]2C[C@@H]4[C@]1(O)[C@H]2OC,0%
5,CCN1C[C@]2(OC(=O)c3ccccc3NC(=O)c3ccc(OC(F)(F)F)cc3)CC[C@H](OC)[C@]34C1[C@H](C[C@H]23)[C@@]1(O)C[C@H](OC)[C@H]2C[C@@H]4[C@]1(O)[C@H]2OC,10%
6,CCN1C[C@]2(OC(=O)c3ccccc3NC(=O)c3cccc(Cl)c3)CC[C@H](OC)[C@]34C1[C@H](C[C@H]23)[C@@]1(O)C[C@H](OC)[C@H]2C[C@@H]4[C@]1(O)[C@H]2OC,17.5%
7,CCN1C[C@]2(OC(=O)c3ccccc3NC(=O)c3ccc(Cl)cc3Cl)CC[C@H](OC)[C@]34C1[C@H](C[C@H]23)[C@@]1(O)C[C@H](OC)[C@H]2C[C@@H]4[C@]1(O)[C@H]2OC,31.2%
8,CCN1C[C@]2(OC(=O)c3ccccc3NC(=O)c3ccccc3Cl)CC[C@H](OC)[C@]34C1[C@H](C[C@H]23)[C@@]1(O)C[C@H](OC)[C@H]2C[C@@H]4[C@]1(O)[C@H]2OC,4.4%
9,CCN1C[C@]2(OC(=O)c3ccccc3NC(=O)c3cccc(Br)c3)CC[C@H](OC)[C@]34C1[C@H](C[C@H]23)[C@@]1(O)C[C@H](OC)[C@H]2C[C@@H]4[C@]1(O)[C@H]2OC,3.4%
10,CCCOc1ccccc1C(=O)Nc1ccccc1C(=O)O[C@@]12CC[C@H](OC)[C@]34C([C@H](C[C@H]13)[C@@]1(O)C[C@H](OC)[C@H]3C[C@@H]4[C@]1(O)[C@H]3OC)N(CC)C2,19.2%
11,CCN1C[C@]2(OC(=O)c3ccccc3NC(=O)c3ccc(Cl)c(Cl)c3)CC[C@H](OC)[C@]34C1[C@H](C[C@H]23)[C@@]1(O)C[C@H](OC)[C@H]2C[C@@H]4[C@]1(O)[C@H]2OC,10.4%
12,CCc1ccc(C(=O)Nc2ccccc2C(=O)O[C@@]23CC[C@H](OC)[C@]45C([C@H](C[C@H]24)[C@@]2(O)C[C@H](OC)[C@H]4C[C@@H]5[C@]2(O)[C@H]4OC)N(CC)C3)cc1,26.7%
13,CCN1C[C@]2(OC(=O)c3ccccc3NC(=O)c3cccc(C)c3)CC[C@H](OC)[C@]34C1[C@H](C[C@H]23)[C@@]1(O)C[C@H](OC)[C@H]2C[C@@H]4[C@]1(O)[C@H]2OC,36.9%
14,CCCCc1ccc(C(=O)Nc2ccccc2C(=O)O[C@@]23CC[C@H](OC)[C@]45C([C@H](C[C@H]24)[C@@]2(O)C[C@H](OC)[C@H]4C[C@@H]5[C@]2(O)[C@H]4OC)N(CC)C3)cc1,28.2%
15,CCN1C[C@]2(OC(=O)c3ccccc3NC(=O)c3ccc(C(C)C)cc3)CC[C@H](OC)[C@]34C1[C@H](C[C@H]23)[C@@]1(O)C[C@H](OC)[C@H]2C[C@@H]4[C@]1(O)[C@H]2OC,21%
16,CCN1C[C@]2(OC(=O)c3ccccc3NC(=O)c3cccc(F)c3)CC[C@H](OC)[C@]34C1[C@H](C[C@H]23)[C@@]1(O)C[C@H](OC)[C@H]2C[C@@H]4[C@]1(O)[C@H]2OC,27.5%
